Tested on: Nrf2-ARE pathway (AREc32 cells)
Experiment: Antioxidant Responsive Element (ARE) luciferase assay
Assay type: cell-based, human
Settings: for F/C (Nrf2-luciferase reporter activity): 24 h
From the text: The pGL-8×ARE which contains eight copies of the ARE present in rat glutathione-S-transferase A2 (GSTA2) along with the pcDNA3.1 plasmid containing the neomycin selectable marker was stably transfected into human MCF7 cells (Wang et al., Cancer Res. 66, 10983-10994, 2006). ARE (antioxidant-responsive element) is the binding site of the transcription factor Nrf2 which regulates the genes involved in detoxification and endogenous defense against oxidative stress. The plasmid pGL-8×ARE contains a luciferase gene downstream of the eight Nrf2 binding sites that allows monitoring Nrf2 activity. For treatment with chicoric acid and related compounds, the AREc 32 cells were seeded 96-well microtiter plates in DMEM growth medium. After treatment of 24 h with the different preparations, firefly luciferase activity was determined.

O=C(/C=C/c1ccc(O)c(O)c1)O[C@@H](C(=O)O)[C@@H](OC(=O)/C=C/c1ccc(O)c(O)c1)C(=O)O [chicoric acid]
F/C (Nrf2-luciferase reporter activity) (100 μg/ml): 2580 | F/C (Nrf2-luciferase reporter activity) (200 μg/ml): 4364 | F/C (Nrf2-luciferase reporter activity) (400 μg/ml): 8810 | F/C (Nrf2-luciferase reporter activity) (600 μg/ml): 558 | F/C (Nrf2-luciferase reporter activity) (800 μg/ml): 251 | F/C (Nrf2-luciferase reporter activity) (1000 μg/ml): 346 | Response in Nrf2-luciferase reporter activity (saturation inactivation response at higher doses): positive dose-dependent response

— patent publication US20110280848A1, “COMPOSITION COMPRISING CHICORIC ACID AND/OR DERIVATIVES THEREOF” (NESTEC S.A., priority 2009, published 2011)
